In ChEMBL document CHEMBL1201862, “PubChem BioAssay data set” (2004):
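Where inhibition never reached the appropriate level, the endpoint shown equals the highest concentration tested. Otherwise, values were interpolated linearly from a five-concentration, 48-hour dose response in 96-well plates. GI50 marks 50% less growth.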 Active and inactive are the calls of the source. No stated cut-off is given here; in the data, active = GI50 up to about 1.1 µM and inactive = higher.

Legend:
Assay in all cases: NCI anticancer screen, dose series, 48 h
[1] = tested on: M14
[2] = tested on: EKVX
[3] = tested on: OVCAR-3
[4] = tested on: NCI-H226
[5] = tested on: PC-3
[6] = tested on: UACC-62
[7] = tested on: KM12
[8] = tested on: HT-29
[9] = tested on: A549
[10] = tested on: HCT-15
[11] = tested on: 786-0
[12] = tested on: SK-MEL-5
[13] = tested on: CCRF-CEM
[14] = tested on: A498
[15] = tested on: ACHN
[16] = tested on: SF-539
[17] = tested on: Malme-3M
[18] = tested on: TK-10
[19] = tested on: UACC-257
[20] = tested on: NCI/ADR-RES

SMILES	GI50 [1]	GI50 [2]	GI50 [3]	GI50 [4]	GI50 [5]	GI50 [6]	GI50 [7]	GI50 [8]	GI50 [9]	GI50 [10] [µM]	GI50 [11]	GI50 [12]	GI50 [13]	GI50 [14]	GI50 [15]	GI50 [16]	GI50 [17]	GI50 [18]	GI50 [19]	GI50 [20]
CCN(CC)CCC1CCCCN1CC(=O)N1c2ccccc2NC(=O)CC1C (stereo not given)	> 100 µM (inactive)	> 100 µM (inactive)	> 100 µM (inactive)	> 100 µM (inactive)	> 100 µM (inactive)	> 100 µM (inactive)	> 100 µM (inactive)	> 100 µM (inactive)	> 100 µM (inactive)	> 100	> 100 µM (inactive)	> 100 µM (inactive)	> 100 µM (inactive)	> 100 µM (inactive)	> 100 µM (inactive)	> 100 µM (inactive)	> 100 µM (inactive)	> 100 µM (inactive)	> 100 µM (inactive)	
Cc1nn(C)c(=O)c2nn(-c3ccccc3)c(C)c12	> 100 µM (inactive)	> 100 µM (inactive)	> 100 µM (inactive)	> 100 µM (inactive)		> 100 µM (inactive)	> 100 µM (inactive)	> 100 µM (inactive)	> 100 µM (inactive)	> 100	> 100 µM (inactive)	> 100 µM (inactive)	> 100 µM (inactive)	> 100 µM (inactive)	> 100 µM (inactive)	> 100 µM (inactive)	> 100 µM (inactive)	> 100 µM (inactive)	> 100 µM (inactive)	
O=C(Cc1nc2ccccc2s1)Nc1cccc(C(F)(F)F)c1	15.6 µM (inactive)	22.2 µM (inactive)	17.6 µM (inactive)	21.8 µM (inactive)		12.6 µM (inactive)	15.2 µM (inactive)	17.1 µM (inactive)	21 µM (inactive)	12.4	14.2 µM (inactive)	16.5 µM (inactive)	1.81 µM (inactive)	5.3 µM (inactive)	13.6 µM (inactive)	18.8 µM (inactive)	16.6 µM (inactive)	21.2 µM (inactive)	14.4 µM (inactive)	
O=C(CC(=O)Nc1ccccc1O)Nc1ccccc1O	16.1 µM (inactive)	> 100 µM (inactive)	14.9 µM (inactive)	63.1 µM (inactive)		3.24 µM (inactive)	10.8 µM (inactive)	27.9 µM (inactive)	29.9 µM (inactive)	5.68	19.6 µM (inactive)	10 µM (inactive)	3.96 µM (inactive)	> 100 µM (inactive)	9.86 µM (inactive)	19.1 µM (inactive)	22.8 µM (inactive)	53 µM (inactive)	15.5 µM (inactive)	
CC(=O)CC(=O)Nn1c(-c2cccs2)nc2ccc(I)cc2c1=O	> 66.8 µM (inactive)	> 37.7 µM (inactive)	> 40.7 µM (inactive)	> 42.3 µM (inactive)	> 51.5 µM (inactive)	> 50.6 µM (inactive)	> 54.7 µM (inactive)	> 100 µM (inactive)	> 64.3 µM (inactive)	> 57.7	> 65.9 µM (inactive)	> 41.6 µM (inactive)	> 46.8 µM (inactive)		> 57 µM (inactive)		> 52.6 µM (inactive)	> 43.9 µM (inactive)	33 µM (inactive)	> 46.5 µM (inactive)
Cc1nnc2n(c1=O)CCCN2C	> 100 µM (inactive)	> 100 µM (inactive)	> 100 µM (inactive)	> 100 µM (inactive)	> 100 µM (inactive)	> 100 µM (inactive)	> 100 µM (inactive)	> 100 µM (inactive)	> 100 µM (inactive)	> 100	> 100 µM (inactive)	> 100 µM (inactive)	> 100 µM (inactive)		> 100 µM (inactive)	> 100 µM (inactive)	> 100 µM (inactive)	> 100 µM (inactive)		
Nc1nc(N)c2nc(CN(C=O)c3ccc(C(=O)O)cc3)cnc2n1	7.43 µM (inactive)	> 26.4 µM (inactive)	> 100 µM (inactive)	> 100 µM (inactive)	0.668 µM (active)	7.11 µM (inactive)	6.64 µM (inactive)	> 100 µM (inactive)	6.14 µM (inactive)	7.14	3.05 µM (inactive)	63.4 µM (inactive)	4.15 µM (inactive)		3.94 µM (inactive)	8.26 µM (inactive)	8.18 µM (inactive)	> 29.2 µM (inactive)	> 100 µM (inactive)	
CCN(CC)CCC1CCCCN1CC(=O)N1c2ccccc2NC(=O)c2ccccc21 (stereo not given)	> 100 µM (inactive)	> 100 µM (inactive)	> 100 µM (inactive)	> 100 µM (inactive)	> 100 µM (inactive)	> 100 µM (inactive)	> 100 µM (inactive)	> 100 µM (inactive)	> 100 µM (inactive)	> 100	> 100 µM (inactive)	> 100 µM (inactive)	> 100 µM (inactive)	> 100 µM (inactive)	> 100 µM (inactive)	> 100 µM (inactive)	> 100 µM (inactive)	> 100 µM (inactive)	> 100 µM (inactive)	
O=c1[nH]c(=O)n(COC(CO)CO)cc1-c1ccccc1	> 100 µM (inactive)	> 100 µM (inactive)	> 100 µM (inactive)		> 100 µM (inactive)	> 100 µM (inactive)	> 100 µM (inactive)	> 100 µM (inactive)	> 100 µM (inactive)	> 100	> 100 µM (inactive)	> 100 µM (inactive)	> 100 µM (inactive)		> 100 µM (inactive)		> 100 µM (inactive)	> 100 µM (inactive)	> 100 µM (inactive)	> 100 µM (inactive)
CC(=O)c1ccc(NC(=O)/C(Cc2ccccn2)=N/NC(=O)C[N+](C)(C)C)cc1	> 100 µM (inactive)	> 100 µM (inactive)	> 100 µM (inactive)	> 100 µM (inactive)		> 100 µM (inactive)	> 100 µM (inactive)	> 100 µM (inactive)	> 100 µM (inactive)	> 100	> 100 µM (inactive)	> 100 µM (inactive)	> 100 µM (inactive)	> 100 µM (inactive)	> 100 µM (inactive)	> 100 µM (inactive)	> 100 µM (inactive)	> 100 µM (inactive)	> 100 µM (inactive)	
COC(=O)C(C(=O)C(=O)Nc1ccc([N+](=O)[O-])cc1)c1nc2cc(C)c(C)cc2nc1O (stereo not given)	> 100 µM (inactive)	> 100 µM (inactive)	> 100 µM (inactive)	> 100 µM (inactive)		> 100 µM (inactive)	> 100 µM (inactive)	> 100 µM (inactive)	> 100 µM (inactive)	> 100	> 100 µM (inactive)	> 100 µM (inactive)	> 100 µM (inactive)	> 100 µM (inactive)	> 100 µM (inactive)	> 100 µM (inactive)	> 100 µM (inactive)	> 100 µM (inactive)	> 100 µM (inactive)	
Clc1ccc(Cc2nc3ccccc3s2)c(Cl)c1	16.4 µM (inactive)	23.6 µM (inactive)	18.6 µM (inactive)	20.4 µM (inactive)		14.1 µM (inactive)	16.6 µM (inactive)	20.6 µM (inactive)	19.7 µM (inactive)	16.3	14.6 µM (inactive)	17.5 µM (inactive)	5.21 µM (inactive)	17.2 µM (inactive)	17.5 µM (inactive)	3.65 µM (inactive)	16.9 µM (inactive)	22.7 µM (inactive)	17.5 µM (inactive)	
Nc1ccc2c(O)cc(O)nc2n1	> 100 µM (inactive)	> 100 µM (inactive)		> 100 µM (inactive)	> 100 µM (inactive)	> 100 µM (inactive)	> 100 µM (inactive)	> 100 µM (inactive)	> 100 µM (inactive)	> 100	> 100 µM (inactive)	> 100 µM (inactive)			> 100 µM (inactive)	> 100 µM (inactive)	37.8 µM (inactive)	> 100 µM (inactive)	> 100 µM (inactive)	> 100 µM (inactive)
O=C1C(Br)=C(c2ccccc2)C(c2ccccc2)=C1c1ccccc1	2.15 µM (inactive)	8.75 µM (inactive)	2.61 µM (inactive)	8.43 µM (inactive)	4.1 µM (inactive)	2.38 µM (inactive)	5.94 µM (inactive)	2.28 µM (inactive)	13.1 µM (inactive)	1.76	1.95 µM (inactive)	2.94 µM (inactive)	0.269 µM (active)	16.1 µM (inactive)	2.55 µM (inactive)	3.01 µM (inactive)	1.75 µM (inactive)	3.42 µM (inactive)	3.35 µM (inactive)	
CC[C@]1(Cc2ccc(OC)c(OC)c2)C=[N+]([O-])O[C@H](OC2CCCC2(c2ccccc2)c2ccccc2)[C@@H]1OC(=O)C(C)(C)C (stereo not given in full)	3.51 µM (inactive)	4.61 µM (inactive)	1.55 µM (inactive)	3.27 µM (inactive)	3.69 µM (inactive)	3.66 µM (inactive)	2.54 µM (inactive)	1.86 µM (inactive)	3.11 µM (inactive)	3.08	2.05 µM (inactive)	2.03 µM (inactive)	2.6 µM (inactive)		2.33 µM (inactive)			3.23 µM (inactive)	3.5 µM (inactive)	2.29 µM (inactive)
C1CSCCSCCS1	> 100 µM (inactive)	> 100 µM (inactive)	> 100 µM (inactive)		> 100 µM (inactive)	> 100 µM (inactive)	> 100 µM (inactive)	> 100 µM (inactive)	> 100 µM (inactive)	> 100	> 100 µM (inactive)	> 100 µM (inactive)	> 100 µM (inactive)			> 100 µM (inactive)		> 100 µM (inactive)	> 100 µM (inactive)	> 100 µM (inactive)
